{"source": "patent US6207399A", "about": "“Methods of determining endogenous thrombin potential (ETP) and thrombin substrates for use in said methods” (Hemker; Hendrik Coenraad, priority 1995, dated 2001)", "type_in_all_cases": "biochemical", "key": {"euglobulin thrombin": {"target": "T1, euglobulin thrombin (Homo sapiens, UniProt P00734)", "T1 construct": "The euglobulin thrombin fraction was prepared from defibrinated human plasma; from tissue; host or cells: defibrinated human plasma (euglobulin fraction, acid precipitation, method of Josso and Prou-Wartelle)", "test": "Decay constants of thrombin in plasma", "method": "(§1) To this mixture was added 10 μL of a thrombin preparation to achieve a final concentration of 100 nM. At regular time intervals (5-10 s) 10 μL samples were subsampled into 490 μL buffer B which contained 200 μM of S2238 to determine thrombin activity. After 2 min the reaction was stopped by adding 300 μL 1M citric acid. The moment of sampling and stopping were recorded on a personal computer with pushbutton-equipped pipettes. The optical density was then read at 405 nm and the obtained amidolytic activities were used to calculate the decay constants. The obtained decay constant is the sum of the decay constants of the reaction of thrombin with antithrombin III (k1) and α2 -macroglobulin (k2).\nas §1, with “Decay constants of thrombin in plasma: To 120 μL defibrinated plasma was added: 50 μL of buffer A which contained the substances to be tested. To” for “To”, “was” for “was then”"}, "human α-thrombin": {"target": "T2, human α-thrombin (Homo sapiens, UniProt P00734)", "T2 construct": "Pure human α-thrombin; gift of Dr. T. Lindhout (University of Limburg, Maastricht)", "test": "Kinetics of hydrolysis of substrates by human α-thrombin in buffer A at 37° C. (Example 2, Table 1)", "procedure,_shortened": "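p-Nitroaniline release was followed at 405 nm (dual wavelength 405-546 nm) in buffer A at 37° C, with substrate at 1 to 2000 μM (at least six levels) preincubated 5 min before enzyme at 0.5 to 100 nM. Km and kcat came from initial velocities fitted to Michaelis-Menten by linear regression, from one or two experiments.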"}, "thrombin": {"target": "thrombin (Homo sapiens, UniProt P00734)", "test": "Kinetic parameters of hydrolysis of the substrates by thrombin in buffer A at 37° C. (Example 4, Table 3)", "parameters": "Pure human α-thrombin; gift of Dr. T. Lindhout (University of Limburg, Maastricht)", "conditions": "buffer A, 37° C.", "procedure,_shortened": "(§2)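 p-Nitroaniline release followed at 405 nm in buffer A at 37 °C, with at least six substrate levels of 200–2000 μM. Thrombin at 0.5–50 nM, factor Xa at 50 nM; Km and kcat from initial velocities by linear regression on Michaelis-Menten.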"}, "factor Xa": {"target": "T3, factor Xa (Homo sapiens, UniProt P00742)", "T3 construct": "human factor Xa samples; gift of Dr. T. Lindhout (University of Limburg, Maastricht)", "T3 sequence (P00742 41-179 limits assumed)": "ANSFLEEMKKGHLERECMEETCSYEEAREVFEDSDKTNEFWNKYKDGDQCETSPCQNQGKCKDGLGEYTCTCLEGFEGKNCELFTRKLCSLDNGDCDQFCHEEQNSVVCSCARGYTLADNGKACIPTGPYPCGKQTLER", "T3 sequence (P00742 235-488 limits assumed)": "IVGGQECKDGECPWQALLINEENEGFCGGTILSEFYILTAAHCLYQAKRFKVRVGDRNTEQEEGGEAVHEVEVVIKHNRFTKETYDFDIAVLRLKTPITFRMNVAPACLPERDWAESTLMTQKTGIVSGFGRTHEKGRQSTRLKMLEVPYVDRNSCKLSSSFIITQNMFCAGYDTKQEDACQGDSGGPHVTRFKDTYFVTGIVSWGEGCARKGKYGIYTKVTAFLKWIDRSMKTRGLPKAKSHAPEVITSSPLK", "test": "Kinetic parameters of hydrolysis of the substrates by factor Xa in buffer A at 37° C. (Example 4, Table 3)", "parameters": "key to Factor Xa kcat: NH: no hydrolysis", "conditions": "buffer A, 37° C., 50 nM factor Xa", "procedure,_shortened": "as §2"}}, "note": "Peptide text beside a SMILES is read from it. * marks the point of attachment. pNA = O=[N+]([O-])c1ccc(N*)cc1"}
{"smiles": "CC(C)[C@H](N)C(=O)N[C@@H](CCCNC(=N)N)C(=O)Nc1ccc([N+](=O)[O-])cc1.Cl.Cl", "note": "[2HCl.H-Val-Arg-pNA] (H-Val-Arg-pNA)", "values": [{"measurement": "k1 : AT-III dependent decay of thrombin", "setting": "euglobulin thrombin; [S] 100 μM in plasma", "result": 2.064, "unit": "min⁻¹"}, {"measurement": "k2 : α2 M dependent decay of thrombin", "setting": "euglobulin thrombin; [S] 100 μM in plasma", "result": 0.253, "unit": "min⁻¹"}, {"measurement": "koverall", "setting": "euglobulin thrombin; [S] 100 μM in plasma", "result": 2.317, "unit": "min⁻¹"}, {"measurement": "t1/2", "setting": "euglobulin thrombin; [S] 100 μM in plasma", "result": 17.95, "unit": "s"}, {"measurement": "(k1,corr) = k1,corr divided by μM AT-III", "setting": "euglobulin thrombin; [S] 200 μM in plasma", "result": 21430, "unit": "M⁻¹ s⁻¹"}, {"measurement": "k1,corr : k1 after correcting for k2,M and 0.170", "setting": "euglobulin thrombin; [S] 200 μM in plasma", "result": 1.750, "unit": "min⁻¹"}, {"measurement": "k1 : AT-III dependent decay of thrombin", "setting": "euglobulin thrombin; [S] 200 μM in plasma", "result": 1.751, "unit": "min⁻¹"}, {"measurement": "k2 : α2 M dependent decay of thrombin", "setting": "euglobulin thrombin; [S] 200 μM in plasma", "result": 0.402, "unit": "min⁻¹"}, {"measurement": "koverall", "setting": "euglobulin thrombin; [S] 200 μM in plasma", "result": 2.154, "unit": "min⁻¹"}, {"measurement": "t1/2", "setting": "euglobulin thrombin; [S] 200 μM in plasma", "result": 19.31, "unit": "s"}, {"measurement": "(k1,corr) = k1,corr divided by μM AT-III", "setting": "euglobulin thrombin; [S] 500 μM in plasma", "result": 18630, "unit": "M⁻¹ s⁻¹"}, {"measurement": "k1,corr : k1 after correcting for k2,M and 0.170", "setting": "euglobulin thrombin; [S] 500 μM in plasma", "result": 1.521, "unit": "min⁻¹"}, {"measurement": "k1 : AT-III dependent decay of thrombin", "setting": "euglobulin thrombin; [S] 500 μM in plasma", "result": 1.509, "unit": "min⁻¹"}, {"measurement": "k2 : α2 M dependent decay of thrombin", "setting": "euglobulin thrombin; [S] 500 μM in plasma", "result": 0.389, "unit": "min⁻¹"}, {"measurement": "koverall", "setting": "euglobulin thrombin; [S] 500 μM in plasma", "result": 1.898, "unit": "min⁻¹"}, {"measurement": "t1/2", "setting": "euglobulin thrombin; [S] 500 μM in plasma", "result": 21.91, "unit": "s"}, {"measurement": "(k1,corr) = k1,corr divided by μM AT-III", "setting": "euglobulin thrombin; [S] 1000 μM in plasma", "result": 18500, "unit": "M⁻¹ s⁻¹"}, {"measurement": "k1,corr : k1 after correcting for k2,M and 0.170", "setting": "euglobulin thrombin; [S] 1000 μM in plasma", "result": 1.510, "unit": "min⁻¹"}, {"measurement": "k1 : AT-III dependent decay of thrombin", "setting": "euglobulin thrombin; [S] 1000 μM in plasma", "result": 1.676, "unit": "min⁻¹"}, {"measurement": "k2 : α2 M dependent decay of thrombin", "setting": "euglobulin thrombin; [S] 1000 μM in plasma", "result": 0.204, "unit": "min⁻¹"}, {"measurement": "koverall", "setting": "euglobulin thrombin; [S] 1000 μM in plasma", "result": 1.879, "unit": "min⁻¹"}, {"measurement": "t1/2", "setting": "euglobulin thrombin; [S] 1000 μM in plasma", "result": 27.12, "unit": "s"}, {"measurement": "k1 : AT-III dependent decay of thrombin", "setting": "euglobulin thrombin; [S] 1500 μM in plasma", "result": 1.087, "unit": "min⁻¹"}, {"measurement": "k2 : α2 M dependent decay of thrombin", "setting": "euglobulin thrombin; [S] 1500 μM in plasma", "result": 0.130, "unit": "min⁻¹"}, {"measurement": "koverall", "setting": "euglobulin thrombin; [S] 1500 μM in plasma", "result": 1.217, "unit": "min⁻¹"}, {"measurement": "t1/2", "setting": "euglobulin thrombin; [S] 1500 μM in plasma", "result": 34.17, "unit": "s"}, {"measurement": "k1 : AT-III dependent decay of thrombin", "setting": "euglobulin thrombin; [S] 2000 μM in plasma", "result": 0.877, "unit": "min⁻¹"}, {"measurement": "k2 : α2 M dependent decay of thrombin", "setting": "euglobulin thrombin; [S] 2000 μM in plasma", "result": 0.128, "unit": "min⁻¹"}, {"measurement": "koverall", "setting": "euglobulin thrombin; [S] 2000 μM in plasma", "result": 1.005, "unit": "min⁻¹"}, {"measurement": "t1/2", "setting": "euglobulin thrombin; [S] 2000 μM in plasma", "result": 41.37, "unit": "s"}, {"measurement": "Km", "setting": "human α-thrombin", "result": 1240, "unit": "µM"}, {"measurement": "kcat", "setting": "human α-thrombin", "result": 0.23, "unit": "s⁻¹"}, {"measurement": "kcat /Km", "setting": "human α-thrombin", "result": 186, "unit": "M/s"}, {"measurement": "Km", "setting": "thrombin", "result": 1240, "unit": "µM"}, {"measurement": "Thrombin kcat", "setting": "thrombin", "result": 0.23, "unit": "s⁻¹"}, {"measurement": "Thrombin kcat /Km", "setting": "thrombin", "result": 186, "unit": "M/s"}, {"measurement": "Factor Xa kcat", "setting": "factor Xa", "result": "NH"}]}
